{"source": "patent US20150005253A1", "about": "“NOVEL COMBINATIONS FOR TREATING ACUTE MYELOID LEUKAEMIA OR CHRONIC MYELOID LEUKAEMIA” (SANOFI, priority 2012, published 2015)", "key": {"[1]": {"tested_on": "KG1 cells", "assay": "in vivo", "assay_type": "in vivo", "conditions": "for CR / cures / log cell kill-gross (LCK-g): Compound (A) 20 mg/kg IV days 16-20, alone or combined; for tumor response, oral consolidation: after IV induction", "method": "(§1) Solutions were kept on ice and administered as a bolus within 1 hour after formulation preparation. The volume of injection was 0.2 mL per mouse.\n(§2) Eight-week-old female SCID mice were purchased from Charles River. The Committee of Animal Studies at Sanofi approved the protocol for animal experimentation. This protocol and all laboratory procedures comply with the French Legislation, which implements the European Directives. Animals were received at least one week before the experiment to allow acclimatization. The animals were kept under a natural daylight cycle and given food and water ad libitum.\n(§3) When the tumor reached approximately 1000 mg, it was removed from the donor mouse, cut into fragments (2-3 mm diameter), placed in a phosphate buffer saline, and implanted bilaterally with a 12-gauge trocar. Tumor fragments were propagated until stable growth behavior occurred (a stable doubling time), before using in experiments. Distribution was performed using body weight and tumor weight criteria with the “Newlab oncology” software (Newlab).\n(§4) When ΔT/ΔC values are negative, the percentage of regression is evaluated. Partial regression (PR) is defined as a decrease ≧50% of tumor volume at treatment initiation. Complete regression (CR) is defined as a decrease in tumor volume below the limit of palpation (T=10 mm^3). At study end, the number of tumor-free survivors (TFS), which correspond to mice without any detectable tumor, was determined. Both drug-related deaths and maximum percent relative mean net body weight loss were also determined. Median times to reach tumor target size were compared using Log-Rank or Kruskal-Wallis multiple comparisons tests. A body weight loss nadir (mean of group)>20% or 10% drug-related deaths were considered to indicate an excessive toxic dosage.\n(§5) where T is the median time (in days) required for the treatment group tumors to reach a predetermined size (eg, 1000 mg), and C is the median time tumors to reach the same size (in days) for the vehicle group of each schedule. Tumor-free survivors are excluded from these calculations (cures are tabulated separately). T-C is the tumor growth delay and Td is the tumor doubling time in days. […] LCK-g values can be translated into an activity rating, according to the Southern Research Institute (SRI) criteria: […]"}, "[2]": {"assay": "in vivo", "assay_type": "in vivo", "conditions": "female, SCID, mouse, in vivo; daily IV", "method": "as §1, §2, §3, §4, §5"}, "[3]": {"tested_on": "leukemia progenitors (CFU-L) of AML patient samples", "assay": "Myeloid leukemic cell clonogenic assay on AML patient samples (ex vivo)", "assay_type": "cell-based, human", "conditions": "for IC50: Homo sapiens", "method": "Hematological malignant cell lines were obtained from Deutsche Sammlung von Mikroorganismen and Zellkulturen GmbH (Braunschweig) and cultured in complete RPMI-1640 medium containing 10% fetal bovine serum and antibiotics. Primary AML cells were obtained from patients seen at Toulouse Hospital (Toulouse, France) at the time of diagnosis and after written informed consent. All samples were evaluated for karyotypic abnormalities, immunologic phenotype, FLT3-acquired activating mutations (internal tandem duplications and kinase domain mutations), t (Mizuki M. et al., Blood 2000 96: 3907-3914; Fiebig H. H. et al., Eur. J. Cancer 2004, 40: 802-820) and inv (Bonnet D. et al., Nat Med 1997 3: 730-737) mutations, and c-kit receptor-acquired mutations. Samples were stored in the Hemopathies Inserm Midi-Pyrénées (HIMIP) collection. Mononuclear cells were separated through a Ficoll-Hypaque density gradient.\n(§6) For in vitro studies, compound (A) was dissolved at 10 mM in DMSO and diluted in complete RPMI-1640 medium or in phenol red-free complete RPMI-1640 medium in sterile 96-well polystyrene cell culture plates. For in vivo studies, compound (A) was prepared for intravenous (IV) or intraperitoneal (IP) administration by mixing 22% PEG400 with 5% solutol and 73% […]. For oral administration, compound (A), was prepared in a generally regarded as safe (GRAS) formulation composed of 21% labrasol with 5% solutol and 74% HCL 0.001N. Solutions were kept on ice and administered as a bolus within 1 hour after formulation preparation. The volume of injection was 0.2 mL per mouse.\nThe assay is as described by Récher and colleagues (Récher C. et al., Blood 2005; 105:2527-2534) with slight modifications. Briefly, cells were washed twice in PBS and suspended at 1×10^5 cell/mL in H4230 medium (Stem Cell Technologies) supplemented with 10% 5637-conditioned medium and appropriate dilutions of COMPOUND (A). Cells were then plated on 35 mm petri dishes and incubated at 37° C. in 5% CO2, fully humidified atmosphere. After 7 days, colonies (more than 20 cells) and clusters (more than 5 cells) were scored using an inverted microscope."}, "[4]": {"tested_on": "erythroblastic BFU-E progenitors", "assay": "Normal myeloid progenitor cell clonogenic assay (BFU-E)", "assay_type": "cell-based", "conditions": "Homo sapiens, 336 h, median over normal myeloid progenitor samples, 14 days", "method": "as §6\n(§7) Fresh CD34^+ human bone marrow cells were washed twice in Iscove modified Dulbecco medium (IMDM) containing 10% FCS and resuspended in H4230 medium supplemented with 10% 5637-conditioned medium for CFU-GM growth, in H4435 medium for CFU-M growth, and in H4535 medium for BFU-E growth. H4230, H4435, and H4535 medium were purchased from Stem Cell Technologies. The cells were then plated in 35-mm Petri dishes and incubated in a humidified CO2 incubator (5% CO2, 37° C.) for 14 days. Colonies (>50 cells) were then scored under an inverted microscope."}, "[5]": {"tested_on": "CML-T1", "assay": "Human chronic leukaemia CML-T1 implanted in SCID mice", "assay_type": "in vivo", "conditions": "Cytarabine 200 mg/kg IP days 8, 12, 16; COMPOUND (A) 10 mg/kg IP days 8, 9, 11-17, 19; alone or combined", "method": "Food and water were given ad libitum.\nas §5"}, "[6]": {"tested_on": "KG1a cells", "assay": "Tumor implantation study in SCID mice bearing KG1a cells", "assay_type": "in vivo", "conditions": "for ΔT/ΔC: evaluated on day 32; for cures: day 120", "method": "as §6, §2\nAll tumor cell lines were obtained from DSMZ GmbH. Initially, cell lines were cultured in RPMI 1640 containing 10% FCS and antibiotics, and implanted subcutaneously in SCID mice (10^7 cells/mouse). When the tumor reached approximately 1000 mg, it was removed from the donor mouse, cut into fragments (2-3 mm diameter), placed in a phosphate buffer saline, and implanted bilaterally with a 12-gauge trocar. Tumor fragments were propagated until stable growth behavior occurred (a stable doubling time), before using in experiments. Distribution was performed using body weight and tumor weight criteria with the “Newlab oncology” software (Newlab).\nas §4"}, "[7]": {"tested_on": "granulomonocytic progenitors (CFU-GM)", "assay": "Normal myeloid progenitor cell clonogenic assay (CFU-GM)", "assay_type": "cell-based", "conditions": "Homo sapiens, 336 h, median over normal myeloid progenitor samples, 14 days", "method": "as §6, §7"}, "[8]": {"conditions": "Cytarabine 31.5 mg/kg IP days 16-22"}, "[9]": {"conditions": "very advanced KG1 tumors (1000 mg), 25 mg/kg IV daily day 22-30"}}, "note": "Read-outs that look alike come from different tables or passages of the source.", "data": [{"smiles": "CC(C)(C)NC(=O)Nc1nc2nc(Nc3ccc4nsnc4c3)ncc2cc1-c1c(Cl)cccc1Cl", "note": "[Compound (A), N-[2-(2,1,3-benzothiadiazol-5-ylamino)-6-(2,6-dichlorophenyl)pyrido[2,3-d]pyrimidin-7-yl]-N′-(1,1-dimethylethyl)-urea]", "values": [{"measurement": "activity rating", "setting": "[1]; 10 mg/kg IV", "result": "active"}, {"measurement": "animals with CR", "setting": "[1]; 10 mg/kg/day IV", "result": "one of six"}, {"measurement": "ΔT/ΔC", "setting": "[1]; 10 mg/kg/day IV, day 19 to day 38", "result": 17.45, "unit": "%"}, {"measurement": "activity rating", "setting": "[1]; 25 mg/kg IV", "result": "highly active (ΔT/ΔC<0: highly active)"}, {"measurement": "animals with complete regressions (CR)", "setting": "[1]; 25 mg/kg/day IV (MTD)", "result": "6 out of 6"}, {"measurement": "animals with cures", "setting": "[1]; 25 mg/kg/day IV (MTD)", "result": "6 out of 6"}, {"measurement": "DT/DC", "setting": "[1]; 25 mg/kg/day IV, day 19 to day 38", "result": "< −14.27", "unit": "%"}, {"measurement": "body weight loss", "setting": "[1]; 25 mg/kg/day IV, day 29, reversible", "result": 18.2, "unit": "%"}, {"measurement": "CR", "setting": "[1]; [8]", "result": 83, "unit": "%"}, {"measurement": "cures", "setting": "[1]; [8]", "result": "no"}, {"measurement": "log cell kill-gross (LCK-g)", "setting": "[1]; [8]", "result": 2.4}, {"measurement": "tumor response, oral consolidation", "setting": "[1]; oral 1x50 mg/kg daily day 31-95", "result": "tumors re-grew slowly"}, {"measurement": "tumor response, oral consolidation", "setting": "[1]; oral 2x40 mg/kg daily day 31-95", "result": "complete disappearance of tumors"}, {"measurement": "animals cured", "setting": "[1]; oral 2x40 mg/kg/day", "result": "None"}, {"measurement": "maximum body weight loss", "setting": "[1]; oral 2x40 mg/kg/day, day 28, rapidly reversible", "result": 14.4, "unit": "%"}, {"measurement": "efficacy (in words)", "setting": "[1]; oral once a day 19.8 mg/kg", "result": "no efficacy"}, {"measurement": "ΔT/ΔC", "setting": "[1]; oral once a day 19.8 mg/kg", "result": 41.99, "unit": "%"}, {"measurement": "DT/DC", "setting": "[1]; oral once a day 31.5 mg/kg", "result": 19.72, "unit": "%"}, {"measurement": "DT/DC", "setting": "[1]; oral once a day 50 mg/kg", "result": 7.61, "unit": "%"}, {"measurement": "ΔT/ΔC", "setting": "[1]; oral, two daily dosages of 40 mg/kg/day, day 15 to day 40", "result": "−3.80", "unit": "%"}, {"measurement": "activity rating, IV induction phase", "setting": "[1]; [9]", "result": "highly active (ΔT/ΔC<0: highly active)"}, {"measurement": "tumor response, IV induction phase", "setting": "[1]; [9]", "result": "strong tumor regressions"}, {"measurement": "MTD", "setting": "[2]", "result": 25, "unit": "mg/kg"}, {"measurement": "IC50", "setting": "[3]; range over AML patient samples, read-out: IC50 values ranging (all tested samples)", "result": "≥ 3.8", "unit": "nM"}, {"measurement": "IC50", "setting": "[3]; resistant, N=4 samples, read-out: IC50 maximum, resistant samples", "result": "> 1000", "unit": "nM"}, {"measurement": "IC50", "setting": "[3]; resistant, N=4 samples, read-out: IC50 minimum, resistant samples", "result": 888, "unit": "nM"}, {"measurement": "IC50", "setting": "[3]; sensitive, N=26, read-out: IC50 maximum, sensitive samples", "result": 532, "unit": "nM"}, {"measurement": "IC50", "setting": "[3]; sensitive, N=26, read-out: IC50 median, sensitive samples", "result": 172, "unit": "nM"}, {"measurement": "IC50", "setting": "[3]; sensitive, N=26, read-out: IC50 minimum, sensitive samples", "result": 3.8, "unit": "nM"}, {"measurement": "sensitive samples as share of the tested samples", "setting": "[3]; classified against activity on normal hematopoietic progenitors", "result": 86.7, "unit": "%"}, {"measurement": "AML cell samples displaying resistance in the high-risk cytogenetic group", "setting": "[3]; high-risk group: patients 4, 11, 14, 19, 21, 23, 25, 27, 28, 29", "result": 3}, {"measurement": "sensitivity of patient sample 11", "setting": "[3]; patient sample 11", "result": "highly sensitive"}, {"measurement": "IC50", "setting": "[4]", "result": 219, "unit": "nM"}, {"measurement": "LCK-g", "setting": "[5]", "result": 0.1}, {"measurement": "activity rating", "setting": "[6]; 10 mg/kg", "result": "highly active (ΔT/ΔC<0: highly active)"}, {"measurement": "animals with complete regression", "setting": "[6]; 10 mg/kg", "result": "10/10"}, {"measurement": "ΔT/ΔC", "setting": "[6]; 10 mg/kg daily IV day 5-13 then IP to day 31", "result": "−4.99", "unit": "%"}, {"measurement": "cures", "setting": "[6]; 10 mg/kg", "result": 80, "unit": "%"}, {"measurement": "activity rating", "setting": "[6]; 17 mg/kg", "result": "highly active (ΔT/ΔC<0: highly active)"}, {"measurement": "animals with complete regression", "setting": "[6]; 17 mg/kg", "result": "10/10"}, {"measurement": "ΔT/ΔC", "setting": "[6]; 17 mg/kg daily IV day 5-13 then IP to day 31", "result": "−4.70", "unit": "%"}, {"measurement": "body weight loss at nadir", "setting": "[6]; 17 mg/kg daily IV day 5-13 then IP, day 22, reversible", "result": 16.2, "unit": "%"}, {"measurement": "cures", "setting": "[6]; 17 mg/kg", "result": 60, "unit": "%"}, {"measurement": "IC50", "setting": "[7]", "result": 788, "unit": "nM"}]}, {"smiles": "Nc1ccn([C@@H]2O[C@H](CO)[C@@H](O)[C@@H]2O)c(=O)n1", "note": "[Cytarabine, cytarabine, reference compound]", "values": [{"measurement": "CR", "setting": "[1]; [8]", "result": "no"}, {"measurement": "cures", "setting": "[1]; [8]", "result": "no"}, {"measurement": "log cell kill-gross (LCK-g)", "setting": "[1]; [8]", "result": 1.6}, {"measurement": "PR", "setting": "[1]; [8]", "result": "no"}, {"measurement": "LCK-g", "setting": "[5]", "result": 0.9}]}]}
